Test results taken from ChEMBL document CHEMBL5604062, “ASAP - ZIKV NS2B-NS3 protease fluorescence dose response” (2024).
pIC50: −log10 of the molar value. Values joined by “and” are separate entries in the source; they are usually repeats but may differ in a detail not shown here. Identical values can stand only once. Residues, ends and D or L forms follow the SMILES beside them. *: point of attachment. pNA = O=[N+]([O-])c1ccc(N*)cc1; Boc = CC(C)(C)OC(=O)*

target: Nonstructural protein 3 (Zika virus, UniProt A0A024AXB9); test: Functional biochemical assay to identify treatments for viral infectious disease that targets Zika NS2B-NS3 protease. Utilizing a direct enzyme activity measurement method, reading the fluorescence intensity is used to characterize the relative potency of inhibitors as IC50.; parameters: species or system PRVABC59
Sequence (A0A024AXB9 whole entry): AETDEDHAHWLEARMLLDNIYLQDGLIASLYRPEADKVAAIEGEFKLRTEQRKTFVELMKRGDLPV

SMILES | pIC50 | IC50
O=C(Nc1cccnc1)C1CCN(Cc2c[nH]c3ccccc23)CC1 | 4.19 | 
CN1CCN(C2CN(C(=O)c3cc(Br)cc(C=O)c3)C2)CC1 | < 4.00 | 
O=S(=O)(c1cccnc1)N1CCN(Cc2c[nH]c3ccccc23)CC1 | < 4.00 | 
O=C(Nc1cc([C@H]2CCOC2)ccn1)c1cc(F)cc2[nH]ncc12 | < 4.60 | 
CCn1c(=O)c(N2CC[C@]3(CCSC3)C2)nc2ccccc21 | < 4.00 | 
CCn1ncc2c(C(=O)Nc3ccc4c(c3)CNC4)cc(C)nc21 | 5.36 | 
CCSc1nnc(SCCn2nc3ccccn3c2=O)s1 | < 4.00 | 
Cn1nccc1-c1cc(NC(=O)c2cc(F)cc3[nH]ncc23)cc2c1CNC2 | 7.38 and 7.54 | 
Cc1cc(N2CCCCC2)ccc1NS(=O)(=O)c1ccc(Cl)cc1C(=O)O | < 4.00 | 
CC(C)CNC(=O)[C@H](Nc1ccc2c(c1)CNC2)c1cc(Cl)cc2[nH]ncc12 | 7.12 and 7.27 | 
NCc1cccc(NC(=O)[C@@H]2CCC[C@]3(CCNC3=O)C2)c1 | < 4.00 | 
O=C(Nc1ccc2c(c1)CNC2)N1CCC[C@H]1c1cc(C(F)(F)F)no1 | < 4.60 | 
O=C(Nc1ccc2c(c1)CNC2)N1CC(F)(F)CC2(CCC2)C1 | < 4.60 | 
CCn1c(=O)c(N2C[C@H]3C[C@@H](O)CC[C@H]3C2)nc2ccccc21 | < 4.00 | 
FC(F)(F)Oc1cc(Cl)cc2c(Cc3ccc(-c4nnn[nH]4)cc3)c[nH]c12 | 4.47 | 
CCCC[C@H](NC(C)=O)C(=O)N[C@H](C(=O)NCc1ccc(CN)cc1)c1ccccc1 | < 4.00 | 
CC(C)Nc1c(-c2cc(Cl)cc3[nH]ncc23)nc2ccc3c(n12)CNC3 | < 4.60 | 
CCn1c(=O)c(N2C[C@H]3CCCN3C(=O)[C@H]2C)nc2ccccc21 | < 4.00 | 
Cc1nccnc1Oc1ccc(S(=O)(=O)Nc2ccc(Cl)cc2C(=O)O)cc1 | < 4.00 | 
O=C(Nc1ccc2c(c1)CNC2)N1C[C@H](C2CC2)C[C@@H]1C1CC1 | < 4.60 | 
CC[C@H]1CN(C(=O)c2ccc(C3(CN)CC3)cc2)Cc2ccccc21 | < 4.00 | 
Cc1nn(C)cc1-c1ccc(S(=O)(=O)Nc2ccc(Cl)cc2C(=O)O)cc1 | < 4.00 | 
NC(=O)[C@H](c1c[nH]c2ccccc12)N1CCC(c2cnc3ccc[nH]c2-3)CC1 | 4.02 | 

SMILES | pIC50 | IC50
c1cc(-c2nnc(NCc3nnn[nH]3)s2)no1 | < 4.00 | 
CCn1c(=O)c(N2C[C@H]3COC(C)(C)OC[C@H]3C2)nc2ccccc21 | < 4.00 | 
Cn1nc(C2CCN(C(=O)c3ccccc3CSc3nnc[nH]3)CC2)cc1O | < 4.00 | 
CCn1c(=O)c(N2C[C@@H](CO)[C@H](c3cncn3C)C2)nc2ccccc21 | < 4.00 | 
Cc1nc(C2(NC(=O)c3cccc4c3CC(=O)N4)CCC2)no1 | < 4.60 | 
c1ccc2sc(C3CCN([C@H]4Cc5[nH]c6ccccc6c5C4)CC3)nc2c1 | < 4.00 | 
Cc1c(C(=O)Nc2cc(-c3cccnc3)ccn2)cnn1C1CC1 | < 4.60 | 
O=C(NCC1CCNCC1)c1cc(Cl)cc2[nH]ncc12 | 4.13 | 
c1ccc(-c2csc(C3CCN(Cc4c[nH]c5ccccc45)CC3)n2)cc1 | 4.65 | 
CCn1ccnc(N2C[C@H](c3c[nH]c4ccccc34)[C@H](N3C(=O)c4ccccc4C3=O)C2)c1=O | < 4.00 | 
COc1cc(OC)cc([C@H]2CCN(C(=O)Nc3ccc4c(c3)CNC4)C2)c1 | < 4.60 | 
CCn1ccnc(N2CC[C@H](c3ccc(C#N)cc3)C2)c1=O | < 4.00 | 
O=C(NCC1CCCCC1)[C@H]1CCCN1C(=O)Nc1ccc2c(c1)CNC2 | < 4.60 | 
Cc1c(C(=O)Nc2cc(CCCN)ccc2F)cc(C2CC2)n1C | 4.16 | 
Cn1ncc(C(=O)Nc2cc(CCCN)ccn2)c1O | < 4.60 | 
CCn1cc(C#N)nc(N2CC[C@@H](CO)C2)c1=O | < 4.00 | 
Cc1cc(C)n([C@H]2CCCN(C(=O)Nc3ccc4c(c3)CNC4)C2)n1 | < 4.60 | 
O=Cc1ccc(N2CCC(C(=O)Nc3ccc(Br)cc3O)CC2)cc1 | 4.17 | 
CSCC[C@H](NC(=O)OC(C)(C)C)C(=O)N1CCC[C@H]1C(=O)Nc1ccc([N+](=O)[O-])cc1 (Boc-Met-Pro-pNA) | < 4.00 | 
CCc1ncc(CN2CCC(c3nc4ccccc4s3)CC2)[nH]1 | < 4.00 | 
Cc1cc(C=O)c(O)c(C(=O)N2CC[C@H](CN(C)C)C2)c1 | < 4.00 | 
NCCC1(C(=O)Nc2ccc3c(c2)C(=O)OC3)CCCC1 | < 4.60 | 
O=C(O)c1cc2c(cc1NS(=O)(=O)c1ccc(F)cc1)CCC2 | < 4.00 | 

Second part, the compound after the results:

pIC50 | IC50 | SMILES
< 4.00 |  | O=C(Nc1ccc2c(c1)COC2)c1cc(Cl)cc2[nH]ncc12
5.53 |  | N[C@H]1CCCc2ccc(NC(=O)c3cc(Cl)cc4[nH]ncc34)cc21
5.60 |  | CCS(=O)(=O)c1ccc(Cl)cc1C(=O)Nc1ccc2c(c1)CNC2
< 4.00 |  | O=C(O)Cc1cccc(NC(=O)c2cc(Cl)cc(NC(=O)OCc3ccccc3)c2)c1
5.07 |  | N[C@H]1CCc2ccc(NC(=O)c3cc(Cl)cc(NC(=O)OCc4ccccc4)c3)cc21
 | 36 nM (2×) and 22 nM | O=C(Nc1ccc2c(c1)CNC2)c1cc(F)cc2[nH]c(-c3cccc(F)c3)nc12
7.24 and 7.52 |  | CCCCNC(=O)[C@H](Nc1ccc2c(c1)CNC2)c1cc(Cl)cc(C2CC2)c1
< 4.00 |  | CNC(=O)[C@H](Nc1ccc(-c2nn[nH]n2)cc1)c1cc(Cl)cc(NC(=O)OCc2ccccc2)c1
< 4.00 |  | O=C(O)C[C@H]1CCCN1C(=O)c1cc(Cl)cc(NC(=O)OCc2ccccc2)c1
< 4.00 |  | NCc1cccc(NC(=O)[C@@H](NC(=O)OCc2ccccc2)c2cccnc2)c1
< 4.60 |  | O=C(Nc1ccc2c(c1)C(=O)OC2)c1cccc(CC2CNC2)c1
< 4.00 |  | NCc1cc(NS(=O)(=O)c2ccc(Oc3ccccc3Cl)cc2)ccc1Cl
< 4.00 |  | N#Cc1ccc(S(=O)(=O)Nc2ccc(Oc3ccccc3Cl)cc2)c(C(=O)O)c1
< 4.60 |  | C=CC[C@H]1NCc2cc(NC(=O)c3ccc4c(c3)CC(=O)N4)ccc21
< 4.00 |  | O=C(Nc1ccc2c(c1)CNC2)[C@H]1CCc2ccccc21
< 4.00 |  | CCNC(=O)Nc1cc(Cl)cc(C(=O)O)c1
< 4.00 |  | O=C(O)c1nn(-c2ccccc2)cc1Cc1c[nH]c2ccc(Cl)cc12
< 4.00 |  | NCc1cccc(NC(=O)[C@H](NC(=O)OCc2ccccc2)c2cccc(OCCn3cccn3)c2)c1
7.28 and 7.43 |  | N#CCCNC(=O)[C@H](Nc1ccc2c(c1)CNC2)c1cc(Cl)cc(C2CC2)c1

pIC50 | IC50 | SMILES
< 4.00 |  | O=C(O)C[C@H](NC(=O)OCc1ccccc1)c1ccc(OCc2ccccc2)c(Br)c1
4.14 |  | Cc1cc(NS(=O)(=O)c2ccc(Oc3ccccc3Cl)cc2)c(C(=O)NCC(F)(F)F)cc1F
4.37 |  | NCc1ccc(CNC(=O)c2cc(Cl)cc(NC(=O)OCc3ccccc3)c2)cc1
6.08 |  | O=C(Nc1ccc2c(c1)CNCCO2)c1cc(Cl)cc2[nH]ncc12
< 4.00 |  | CCOCC(=O)N[C@H](C(=O)Nc1cccc(CN)c1)c1ccc(OCc2ccccc2)cc1
< 4.00 |  | C=CC[C@H](Nc1cccc(C(=O)O)c1)c1cc(Cl)cc2[nH]ncc12
4.66 |  | NCc1cccc(NC(=O)[C@@H]2Cc3ccc(OCc4ccccc4)cc3CN2C(=O)OCc2ccccc2)c1
< 4.00 |  | O=C(O)c1cc(Cl)ccc1S(=O)(=O)N[C@H]1CCN(Cc2ccccc2)C(=O)C1
4.08 |  | NCc1cccc(NC(=O)[C@H](NC(=O)OCc2ccccc2)c2cccc(-c3ccccn3)c2)c1
< 4.00 |  | CC(C)(C#N)CS(=O)(=O)N1CCC([C@H](NC(=O)OCc2ccccc2)C(=O)Nc2cccc(CN)c2)CC1
4.46 |  | CC(C)Oc1ccccc1C(=O)N[C@H](C(=O)Nc1cccc(CN)c1)c1ccc(OCc2ccccc2)cc1
< 4.60 |  | NCc1ccccc1C(=O)Nc1ccc2c(c1)C(=O)OC2
< 4.00 |  | O=C1Cc2cc(NC(=O)c3cc(Cl)cc(NC(=O)OCc4ccccc4)c3)ccc2N1
4.42 |  | O=C(Nc1cc(Cl)cc([C@H](C#CCO)Nc2cccc(-c3nn[nH]n3)c2)c1)OCc1ccccc1
4.96 |  | NCCNS(=O)(=O)c1ccc(NC(=O)c2cc(Cl)cc(NC(=O)OCc3ccccc3)c2)cc1
5.58 |  | O=C(Nc1cc(Cl)cc([C@H]2C[C@@H]2c2cccc(C3CCNCC3)c2)c1)OCc1ccccc1
4.40 |  | NCc1cccc(NC(=O)c2cc(N)cc(Cl)c2)c1
4.22 |  | Cc1c(NC(=O)OCc2ccccc2)cc(C(F)(F)F)cc1C(=O)Nc1cccc(CN)c1
< 4.00 |  | O=C(Nc1ccc2c(c1)CNC2)c1ccc2c(c1)NCCO2

pIC50 | IC50 | SMILES
< 4.00 |  | NCc1cccc(NC(=O)[C@H](NC(=O)OCc2ccccc2)C2CCN(S(=O)(=O)c3ccccc3)CC2)c1
4.93 |  | O=C(Nc1ccc2c(c1)CNC2)c1ccc2c(c1)CCC2
< 4.00 |  | O=C(Nc1cc(Cl)cc(-c2cc3cc(C(=O)O)ncn3c2)c1)OCc1ccccc1
< 4.00 |  | O=C(Nc1cc(Cl)cc(C(=O)N2CCC[C@H]2c2nnn[nH]2)c1)OCc1ccccc1
4.77 |  | Clc1cccc([C@H](C#Cc2ccccc2)Nc2cccc(-c3nn[nH]n3)c2)c1
< 4.00 |  | NCc1cccc(NC(=O)[C@H]2CC(=O)Nc3ccc(Br)cc32)c1
< 4.00 |  | O=C(Nc1cc(Cl)cc(C(=O)Nc2cc(C(=O)O)ccn2)c1)OCc1ccccc1
4.87 and 5.01 and 4.96 |  | C=CC[C@H](Nc1cc(Cl)cc(NC(=O)OCc2ccccc2)c1)c1cccc(-c2nn[nH]n2)c1
< 4.00 |  | NCc1cccc(NC(=O)[C@H]2c3ccc(Br)cc3OCCN2C(=O)OCc2ccccc2)c1
7.27 and 7.38 |  | CO[C@H]1C[C@H](n2ncc3c(C(=O)Nc4ccc5c(c4)CNC5)cc(Cl)cc32)C1
5.60 |  | NCCc1ccc([C@H]2C[C@@H]2c2cc(Cl)cc(NC(=O)OCc3ccccc3)c2)cc1
< 4.00 |  | CC[C@H]1CCN(C(=O)c2cc(Cl)ccc2NS(=O)(=O)c2ccc(Oc3ccccc3Cl)cc2)C1
6.20 |  | CC(C)c1nn(C)cc1-c1cc(F)cc(C(=O)Nc2ccc3c(c2)CNC3)c1
5.85 |  | CNCc1cc(Cl)cc(C(=O)Nc2cccc(CN)c2)c1
< 4.00 |  | NCc1cccc(NC(=O)[C@@]23CCC[C@H](C2)N3C(=O)OCc2ccccc2)c1
6.77 |  | C[C@]1(O)C(=O)Nc2cc(F)cc(C(=O)Nc3ccc4c(c3)CNC4)c21
< 4.60 |  | O=C1OCc2ccc(NC(=O)c3cccc4c3CNC4)cc21
< 4.00 |  | O=C(O)c1cc(Cl)ccc1NS(=O)(=O)c1ccc(OCc2ncccn2)cc1
4.08 |  | O=C(Nc1cc(Cl)cc(C(=O)Nc2ccnc([C@H]3CCCN3)n2)c1)OCc1ccccc1
